According to patent publication US6525001B1, “Substituted pyrimidine and pyridine herbicides” (Mid-American Commercialization Corporation, priority 1997, dated 2003):

Experiments:
Type in all cases: in vivo
[1] = test system: redroot pigweed (Amaranthus retroflexus); test: Test C; set-up: key: 0 was no effect; 100 was complete control; conditions: PREEMERGENCE
[2] = test system: fall panicum (Panicum dichotomiflorum); test: Test C; set-up: key: 0 was no effect; 100 was complete control; conditions: PREEMERGENCE
soybean (Glycine max) = test: Test C; conditions: PREEMERGENCE
corn (Zea mays) = test: Test C; set-up: key: 0 was no effect; 100 was complete control; conditions: PREEMERGENCE
[3] = test system: barnyardgrass (Echinochloa crus-galli); test: Test C; set-up: key: 0 was no effect; 100 was complete control; conditions: PREEMERGENCE
[4] = test system: johnsongrass (Sorghum halepense); test: Test C; conditions: PREEMERGENCE
[5] = test system: common purslane (Portulaca oleracea); test: Test E pre-/postemergence/post directed; set-up: key: 0 is no effect; 100 is complete control
Description: (§1) Seeds, tubers, or plant parts of alexandergrass (Brachiaria plantaginea), annual bluegrass (Poa annua), arrowleaf sida (Sida rhombifolia), barnyardgrass (Echinochloa crus-galli), bermudagrass (Cynodon dactylon), citrus (Citrus sinensis), common chickweed (Stellaria media), common purslane (Portulaca oleracea), common ragweed (Ambrosia elatior), common groundsel (Senecio vulgaris), dallisgrass (Paspalum dilatatum), goosegrass (Eleusine indica), green foxtail (Setaria viridis), guineagrass (Panicum maximum), itchgrass (Rottboellia exaltata), johnson grass (Sorghum halepense), kochia (Kochia scoparia), large crabgrass (Digitaria sanguinalis), leafy spurge (Euphorbia esula), pitted morningglory (Ipomoea lacunosa), purple nutsedge (Cyperus rotundus), quackgrass (Agropyron repens), Russian thistle (Salsola kali), sandbur (Cenchrus echinatus), sourgrass (Trichachne insularis), Spanishneedles (Bidens bipinnata), sugarcane (Saccharum officinarum), surinam grass (Brachiaria decumbens) and tall mallow (Malva sylvestris) were planted into greenhouse pots of flats containing greenhouse planting medium. Plant species were grown grown in separate pots or individual compartments. Preemergence applications were made within one day of planting the seed or plant part. Postemergence applications were applied when the plants were in the two to four leaf stage (three to twenty cm).
(§2) Test chemicals were formulated in a non-phytotoxic solvent mixture which included a surfactant and applied preemergence to the soil surface, postemergence to the plants or as a post directed spray to plants and soil at the base of the target species. Untreated control plants and treated plants were placed in the greenhouse and visually evaluated for injury 13 to 21 days after herbicide application. Plant response ratings, summarized in Table E, are based on a 0 to 100 scale where 0 is no injury and 100 is complete control. A dash (−) response means no test result.

[6] = test system: common groundsel (Senecio vulgaris); test: Test E pre-/postemergence/post directed; set-up: key: 0 is no effect; 100 is complete control; conditions: PREEMERGENCE
Description: as §1, §2

[7] = test system: goosegrass (Eleusine indica); test: Test E pre-/postemergence/post directed; set-up: key: 0 is no effect; 100 is complete control
Description: as §1, §2

[8] = test system: dallisgrass (Paspalum dilatatum); test: Test E pre-/postemergence/post directed; set-up: key: 0 is no effect; 100 is complete control
Description: as §1, §2

[9] = test system: large crabgrass (Digitaria sanguinalis); test: Test E pre-/postemergence/post directed; set-up: key: 0 is no effect; 100 is complete control; conditions: PREEMERGENCE
Description: as §1, §2

[10] = test system: sourgrass (Trichachne insularis); test: Test E pre-/postemergence/post directed; set-up: key: 0 is no effect; 100 is complete control
Description: as §1, §2

[11] = test system: common ragweed (Ambrosia elatior); test: Test E pre-/postemergence/post directed; set-up: key: 0 is no effect; 100 is complete control; conditions: PREEMERGENCE
Description: as §1, §2

[12] = test system: tall mallow (Malva sylvestris); test: Test E pre-/postemergence/post directed; set-up: key: 0 is no effect; 100 is complete control; conditions: PREEMERGENCE
Description: as §1, §2

[13] = test system: guineagrass (Panicum maximum); test: Test E pre-/postemergence/post directed; set-up: key: 0 is no effect; 100 is complete control
Description: as §1, §2

[14] = test system: hairy beggarticks (Bidens pilosa); test: Test C; set-up: key: 0 was no effect; 100 was complete control; conditions: PREEMERGENCE
[15] = test system: surinam grass (Brachiaria decumbens); test: Test C; conditions: PREEMERGENCE
[16] = test system: bermudagrass (Cynodon dactylon); test: Test E pre-/postemergence/post directed; set-up: key: 0 is no effect; 100 is complete control; conditions: PREEMERGENCE, Rate 250 g/ha
Description: as §1, §2

COc1cnc(-c2ccc(C(F)(F)F)cc2)nc1Cc1cccc(C(F)(F)F)c1 [Compound 23]
Plant response rating, Redroot pigweed ([1]; Rate 35 g/ha): 100 | Plant response rating, Redroot pigweed ([1]; Rate 70 g/ha): 100 | Plant response rating, Redroot pigweed ([1]; Rate 140 g/ha): 100 | Plant response rating, Fall panicum ([2]; Rate 35 g/ha): 55 | Plant response rating, Fall panicum ([2]; Rate 70 g/ha): 100 | Plant response rating, Fall panicum ([2]; Rate 140 g/ha): 100 | Plant response rating, Soybean (soybean (Glycine max); Rate 35 g/ha): 5 | Plant response rating, Soybean (soybean (Glycine max); Rate 70 g/ha): 5 | Plant response rating, Soybean (soybean (Glycine max); Rate 140 g/ha): 10 | Plant response rating, Corn (corn (Zea mays); Rate 35 g/ha): 0 | Plant response rating, Corn (corn (Zea mays); Rate 70 g/ha): 0 | Plant response rating, Corn (corn (Zea mays); Rate 140 g/ha): 5 | Plant response rating, Barnyardgrass ([3]; Rate 35 g/ha): 0 | Plant response rating, Barnyardgrass ([3]; Rate 70 g/ha): 5 | Plant response rating, Barnyardgrass ([3]; Rate 140 g/ha): 10 | Plant response rating, Johnsongrass ([4]; Rate 35 g/ha): 5 | Plant response rating, Johnsongrass ([4]; Rate 70 g/ha): 20 | Plant response rating, Johnsongrass ([4]; Rate 140 g/ha): 80 | Plant response rating, Com. purslane ([5]; POSTEMERGENCE, Rate 250 g/ha): 50 | Plant response rating, Com. purslane ([5]; PREEMERGENCE, Rate 32 g/ha): 100 | Plant response rating, Com. purslane ([5]; PREEMERGENCE, Rate 64 g/ha): 100 | Plant response rating, Com. purslane ([5]; PREEMERGENCE, Rate 125 g/ha): 100 | Plant response rating, Com. purslane ([5]; PREEMERGENCE, Rate 250 g/ha): 100 | Plant response rating, Com. groundsel ([6]; Rate 32 g/ha): 100 | Plant response rating, Com. groundsel ([6]; Rate 64 g/ha): 100 | Plant response rating, Com. groundsel ([6]; Rate 125 g/ha): 100 | Plant response rating, Com. groundsel ([6]; Rate 250 g/ha): 100 | Plant response rating, Goosegrass ([7]; POSTEMERGENCE, Rate 250 g/ha): 75 | Plant response rating, Goosegrass ([7]; PREEMERGENCE, Rate 32 g/ha): 98 | Plant response rating, Goosegrass ([7]; PREEMERGENCE, Rate 64 g/ha): 98 | Plant response rating, Goosegrass ([7]; PREEMERGENCE, Rate 125 g/ha): 98 | Plant response rating, Goosegrass ([7]; PREEMERGENCE, Rate 250 g/ha): 100 | Plant response rating, Dallisgrass ([8]; POSTEMERGENCE, Rate 250 g/ha): 40 | Plant response rating, Dallisgrass ([8]; PREEMERGENCE, Rate 32 g/ha): 80 | Plant response rating, Dallisgrass ([8]; PREEMERGENCE, Rate 64 g/ha): 85 | Plant response rating, Dallisgrass ([8]; PREEMERGENCE, Rate 125 g/ha): 90 | Plant response rating, Dallisgrass ([8]; PREEMERGENCE, Rate 250 g/ha): 100 | Plant response rating, Large crabgrass ([9]; Rate 125 g/ha): 100 | Plant response rating, Large crabgrass ([9]; Rate 250 g/ha): 100 | Plant response rating, Sourgrass ([10]; POSTEMERGENCE, Rate 250 g/ha): 30 | Plant response rating, Sourgrass ([10]; PREEMERGENCE, Rate 32 g/ha): 98 | Plant response rating, Sourgrass ([10]; PREEMERGENCE, Rate 64 g/ha): 98 | Plant response rating, Sourgrass ([10]; PREEMERGENCE, Rate 125 g/ha): 100 | Plant response rating, Sourgrass ([10]; PREEMERGENCE, Rate 250 g/ha): 100 | Plant response rating, Com. ragweed ([11]; Rate 125 g/ha): 100 | Plant response rating, Com. ragweed ([11]; Rate 250 g/ha): 100 | Plant response rating, Tall Mallow ([12]; Rate 32 g/ha): 80 | Plant response rating, Tall Mallow ([12]; Rate 64 g/ha): 85 | Plant response rating, Tall Mallow ([12]; Rate 125 g/ha): 85 | Plant response rating, Tall Mallow ([12]; Rate 250 g/ha): 90 | Plant response rating, Guineagrass ([13]; POSTEMERGENCE, Rate 250 g/ha): 75 | Plant response rating, Guineagrass ([13]; PREEMERGENCE, Rate 32 g/ha): 80 | Plant response rating, Guineagrass ([13]; PREEMERGENCE, Rate 64 g/ha): 98 | Plant response rating, Guineagrass ([13]; PREEMERGENCE, Rate 125 g/ha): 98 | Plant response rating, Guineagrass ([13]; PREEMERGENCE, Rate 250 g/ha): 100 | Plant response rating, H. beggarticks ([14]; Rate 35 g/ha): 50 | Plant response rating, H. beggarticks ([14]; Rate 70 g/ha): 50 | Plant response rating, H. beggarticks ([14]; Rate 140 g/ha): 100 | Plant response rating, Surinam grass ([15]; Rate 35 g/ha): 5 | Plant response rating, Surinam grass ([15]; Rate 70 g/ha): 45 | Plant response rating, Surinam grass ([15]; Rate 140 g/ha): 60

Cc1cnc(-n2cnc(C(F)(F)F)c2)nc1Cc1cccc(C(F)(F)F)c1 [Compound 44]
Plant response rating, Com. purslane ([5]; POSTEMERGENCE, Rate 125 g/ha): 70 | Plant response rating, Com. purslane ([5]; POSTEMERGENCE, Rate 250 g/ha): 70 | Plant response rating, Com. purslane ([5]; PREEMERGENCE, Rate 32 g/ha): 80 | Plant response rating, Com. purslane ([5]; PREEMERGENCE, Rate 64 g/ha): 100 | Plant response rating, Com. purslane ([5]; PREEMERGENCE, Rate 125 g/ha): 100 | Plant response rating, Com. purslane ([5]; PREEMERGENCE, Rate 250 g/ha): 100 | Plant response rating, Com. groundsel ([6]; Rate 64 g/ha): 100 | Plant response rating, Com. groundsel ([6]; Rate 125 g/ha): 100 | Plant response rating, Com. groundsel ([6]; Rate 250 g/ha): 100 | Plant response rating, Goosegrass ([7]; POSTEMERGENCE, Rate 125 g/ha): 10 | Plant response rating, Goosegrass ([7]; POSTEMERGENCE, Rate 250 g/ha): 20 | Plant response rating, Goosegrass ([7]; PREEMERGENCE, Rate 32 g/ha): 98 | Plant response rating, Goosegrass ([7]; PREEMERGENCE, Rate 64 g/ha): 98 | Plant response rating, Goosegrass ([7]; PREEMERGENCE, Rate 125 g/ha): 98 | Plant response rating, Goosegrass ([7]; PREEMERGENCE, Rate 250 g/ha): 100 | Plant response rating, Dallisgrass ([8]; POSTEMERGENCE, Rate 125 g/ha): 10 | Plant response rating, Dallisgrass ([8]; POSTEMERGENCE, Rate 250 g/ha): 10 | Plant response rating, Dallisgrass ([8]; PREEMERGENCE, Rate 32 g/ha): 65 | Plant response rating, Dallisgrass ([8]; PREEMERGENCE, Rate 64 g/ha): 80 | Plant response rating, Dallisgrass ([8]; PREEMERGENCE, Rate 125 g/ha): 90 | Plant response rating, Dallisgrass ([8]; PREEMERGENCE, Rate 250 g/ha): 100 | Plant response rating, Sourgrass ([10]; POSTEMERGENCE, Rate 125 g/ha): 10 | Plant response rating, Sourgrass ([10]; POSTEMERGENCE, Rate 250 g/ha): 20 | Plant response rating, Sourgrass ([10]; PREEMERGENCE, Rate 32 g/ha): 80 | Plant response rating, Sourgrass ([10]; PREEMERGENCE, Rate 64 g/ha): 100 | Plant response rating, Sourgrass ([10]; PREEMERGENCE, Rate 125 g/ha): 100 | Plant response rating, Sourgrass ([10]; PREEMERGENCE, Rate 250 g/ha): 100 | Plant response rating, Com. ragweed ([11]; Rate 250 g/ha): 100 | Plant response rating, Tall Mallow ([12]; Rate 32 g/ha): 80 | Plant response rating, Tall Mallow ([12]; Rate 64 g/ha): 80 | Plant response rating, Tall Mallow ([12]; Rate 125 g/ha): 98 | Plant response rating, Tall Mallow ([12]; Rate 250 g/ha): 98 | Plant response rating, Guineagrass ([13]; POSTEMERGENCE, Rate 125 g/ha): 85 | Plant response rating, Guineagrass ([13]; POSTEMERGENCE, Rate 250 g/ha): 85 | Plant response rating, Guineagrass ([13]; PREEMERGENCE, Rate 32 g/ha): 20 | Plant response rating, Guineagrass ([13]; PREEMERGENCE, Rate 64 g/ha): 80 | Plant response rating, Guineagrass ([13]; PREEMERGENCE, Rate 125 g/ha): 100 | Plant response rating, Guineagrass ([13]; PREEMERGENCE, Rate 250 g/ha): 100 | Plant response rating, Bermudagrass [16]: 100
